“And” between values parts separate entries of the source, which are not always exact repeats. Identical values can stand only once.
Key:
MARK1, MARK2 = assay: KINATIV assay; format: cell-based; details: 1 μM, 90 minutes, BCWM.1 cells
Procedure: (§1) The cells were harvested and lysed. The lysates were directly labeled with an ATP-biotin probe. Bound kinases were identified and quantitated by ACTIVX as described in Patricelli et al., Biochemistry, 2007, 46(2): 350-358. The compounds were tested in duplicates against duplicate or quadruplicate control samples.

NEK3 = NEK3 (Homo sapiens (Human), UniProt P51956); assay: KINATIV assay; format: cell-based; details: 1 μM, 90 minutes, BCWM.1 cells
Procedure: as §1

MAP2K1 = MAP2K1 (Homo sapiens (Human), UniProt Q02750); assay: KINATIV assay; format: cell-based; details: 1 μM, 90 minutes, BCWM.1 cells
Procedure: as §1

KSR1, KSR2 = assay: KINATIV assay; format: cell-based; details: 1 μM, 90 minutes, BCWM.1 cells
Procedure: as §1

LYN = LYN (Homo sapiens (Human), UniProt P07948); assay: KINATIV assay; format: cell-based; details: 1 μM, 90 minutes, BCWM.1 cells
Procedure: as §1

RSK3 domain1 = RSK3 domain1 (Homo sapiens (Human), UniProt Q15349); assay: KINATIV assay; format: cell-based; details: 1 μM, 90 minutes, BCWM.1 cells
Procedure: as §1

GSK3A = GSK3A (Homo sapiens (Human), UniProt P49840); assay: KINATIV assay; format: cell-based; details: 1 μM, 90 minutes, BCWM.1 cells
Procedure: as §1

TBK1 = TBK1 (Homo sapiens (Human), UniProt Q9UHD2); assay: KINATIV assay; format: cell-based; details: 1 μM, 90 minutes, BCWM.1 cells
Procedure: as §1

MST1, MST2 = assay: KINATIV assay; format: cell-based; details: 1 μM, 90 minutes, BCWM.1 cells
Procedure: as §1

MAP3K4 = MAP3K4 (Homo sapiens (Human), UniProt Q9Y6R4); assay: KINATIV assay; format: cell-based; details: 1 μM, 90 minutes, BCWM.1 cells
Procedure: as §1

KHS1 = KHS1 (Homo sapiens (Human), UniProt Q9Y4K4); assay: KINATIV assay; format: cell-based; details: 1 μM, 90 minutes, BCWM.1 cells
Procedure: as §1

CaMK2d = CaMK2d (Homo sapiens (Human), UniProt Q13557); assay: KINATIV assay; format: cell-based; details: 1 μM, 90 minutes, BCWM.1 cells
Procedure: as §1

AurA, AurB, AurC = assay: KINATIV assay; format: cell-based; details: 1 μM, 90 minutes, BCWM.1 cells
Procedure: as §1

EphB2 = EphB2 (Homo sapiens (Human), UniProt P29323); assay: KINATIV assay; format: cell-based; details: 1 μM, 90 minutes, BCWM.1 cells
Procedure: as §1

LATS2 = LATS2 (Homo sapiens (Human), UniProt Q9NRM7); assay: KINATIV assay; format: cell-based; details: 1 μM, 90 minutes, BCWM.1 cells
Procedure: as §1

FRAP = FRAP (Homo sapiens (Human), UniProt P42345); assay: KINATIV assay; format: cell-based; details: 1 μM, 90 minutes, BCWM.1 cells
Procedure: as §1

CLK3 = CLK3 (Homo sapiens (Human), UniProt P49761); assay: KINATIV assay; format: cell-based; details: 1 μM, 90 minutes, BCWM.1 cells
Procedure: as §1

MARK2, MARK3 = assay: KINATIV assay; format: cell-based; details: 1 μM, 90 minutes, BCWM.1 cells
Procedure: as §1

STLK6 = STLK6 (Homo sapiens (Human), UniProt Q9C0K7); assay: KINATIV assay; format: cell-based; details: 1 μM, 90 minutes, BCWM.1 cells
Procedure: as §1

FRK = FRK (Homo sapiens (Human), UniProt P42685); assay: KINATIV assay; format: cell-based; details: 1 μM, 90 minutes, BCWM.1 cells
Procedure: as §1

GCN2 = GCN2 (Homo sapiens (Human), UniProt Q9P2K8); assay: KINATIV assay; format: cell-based; details: 1 μM, 90 minutes, BCWM.1 cells
Procedure: as §1

MST4, YSK1 = assay: KINATIV assay; format: cell-based; details: 1 μM, 90 minutes, BCWM.1 cells
Procedure: as §1

PITSLRE = assay: KINATIV assay; format: cell-based; details: 1 μM, 90 minutes, BCWM.1 cells
Procedure: as §1

p38b = p38b (Homo sapiens (Human), UniProt Q15759); assay: KINATIV assay; format: cell-based; details: 1 μM, 90 minutes, BCWM.1 cells
Procedure: as §1

BLK = BLK (Homo sapiens (Human), UniProt P51451); assay: KINATIV assay; format: cell-based; details: 1 μM, 90 minutes, BCWM.1 cells
Procedure: as §1

PEK = PEK (Homo sapiens (Human), UniProt Q9NZJ5); assay: KINATIV assay; format: cell-based; details: 1 μM, 90 minutes, BCWM.1 cells
Procedure: as §1

IRE1 = IRE1 (Homo sapiens (Human), UniProt O75460); assay: KINATIV assay; format: cell-based; details: 1 μM, 90 minutes, BCWM.1 cells
Procedure: as §1

PIK3CB = PIK3CB (Homo sapiens (Human), UniProt P42338); assay: KINATIV assay; format: cell-based; details: 1 μM, 90 minutes, BCWM.1 cells
Procedure: as §1

MAP3K3 = MAP3K3 (Homo sapiens (Human), UniProt Q99759); assay: KINATIV assay; format: cell-based; details: 1 μM, 90 minutes, BCWM.1 cells
Procedure: as §1

FYN, SRC, YES = assay: KINATIV assay; format: cell-based; details: 1 μM, 90 minutes, BCWM.1 cells
Procedure: as §1

CK1g2 = CK1g2 (Homo sapiens (Human), UniProt P78368); assay: KINATIV assay; format: cell-based; details: 1 μM, 90 minutes, BCWM.1 cells
Procedure: as §1

RSK2 domain2 = RSK2 domain2 (Homo sapiens (Human), UniProt P51812); assay: KINATIV assay; format: cell-based; details: 1 μM, 90 minutes, BCWM.1 cells
Procedure: as §1

NEK4 = NEK4 (Homo sapiens (Human), UniProt P51957); assay: KINATIV assay; format: cell-based; details: 1 μM, 90 minutes, BCWM.1 cells
Procedure: as §1

PCTAIRE1, PCTAIRE3 = assay: KINATIV assay; format: cell-based; details: 1 μM, 90 minutes, BCWM.1 cells
Text: (§2) The cells were harvested and lysed.

PCTAIRE2, PCTAIRE3 = assay: KINATIV assay; format: cell-based; details: 1 μM, 90 minutes, BCWM.1 cells
Text: as §2

MAPKAPK3 = MAPKAPK3 (Homo sapiens (Human), UniProt Q16644)
Procedure: as §1

PRP4 = PRP4 (Homo sapiens (Human), UniProt Q13523)
Procedure: as §1

PRPK = PRPK (Homo sapiens (Human), UniProt Q96S44)
Procedure: as §1

PCTAIRE2 = PCTAIRE2 (Homo sapiens (Human), UniProt Q00537)
Procedure: as §1

PCTAIRE1 = PCTAIRE1 (Homo sapiens (Human), UniProt Q00536)
Procedure: as §1

Sequence of GCN2 (Q9P2K8 whole entry): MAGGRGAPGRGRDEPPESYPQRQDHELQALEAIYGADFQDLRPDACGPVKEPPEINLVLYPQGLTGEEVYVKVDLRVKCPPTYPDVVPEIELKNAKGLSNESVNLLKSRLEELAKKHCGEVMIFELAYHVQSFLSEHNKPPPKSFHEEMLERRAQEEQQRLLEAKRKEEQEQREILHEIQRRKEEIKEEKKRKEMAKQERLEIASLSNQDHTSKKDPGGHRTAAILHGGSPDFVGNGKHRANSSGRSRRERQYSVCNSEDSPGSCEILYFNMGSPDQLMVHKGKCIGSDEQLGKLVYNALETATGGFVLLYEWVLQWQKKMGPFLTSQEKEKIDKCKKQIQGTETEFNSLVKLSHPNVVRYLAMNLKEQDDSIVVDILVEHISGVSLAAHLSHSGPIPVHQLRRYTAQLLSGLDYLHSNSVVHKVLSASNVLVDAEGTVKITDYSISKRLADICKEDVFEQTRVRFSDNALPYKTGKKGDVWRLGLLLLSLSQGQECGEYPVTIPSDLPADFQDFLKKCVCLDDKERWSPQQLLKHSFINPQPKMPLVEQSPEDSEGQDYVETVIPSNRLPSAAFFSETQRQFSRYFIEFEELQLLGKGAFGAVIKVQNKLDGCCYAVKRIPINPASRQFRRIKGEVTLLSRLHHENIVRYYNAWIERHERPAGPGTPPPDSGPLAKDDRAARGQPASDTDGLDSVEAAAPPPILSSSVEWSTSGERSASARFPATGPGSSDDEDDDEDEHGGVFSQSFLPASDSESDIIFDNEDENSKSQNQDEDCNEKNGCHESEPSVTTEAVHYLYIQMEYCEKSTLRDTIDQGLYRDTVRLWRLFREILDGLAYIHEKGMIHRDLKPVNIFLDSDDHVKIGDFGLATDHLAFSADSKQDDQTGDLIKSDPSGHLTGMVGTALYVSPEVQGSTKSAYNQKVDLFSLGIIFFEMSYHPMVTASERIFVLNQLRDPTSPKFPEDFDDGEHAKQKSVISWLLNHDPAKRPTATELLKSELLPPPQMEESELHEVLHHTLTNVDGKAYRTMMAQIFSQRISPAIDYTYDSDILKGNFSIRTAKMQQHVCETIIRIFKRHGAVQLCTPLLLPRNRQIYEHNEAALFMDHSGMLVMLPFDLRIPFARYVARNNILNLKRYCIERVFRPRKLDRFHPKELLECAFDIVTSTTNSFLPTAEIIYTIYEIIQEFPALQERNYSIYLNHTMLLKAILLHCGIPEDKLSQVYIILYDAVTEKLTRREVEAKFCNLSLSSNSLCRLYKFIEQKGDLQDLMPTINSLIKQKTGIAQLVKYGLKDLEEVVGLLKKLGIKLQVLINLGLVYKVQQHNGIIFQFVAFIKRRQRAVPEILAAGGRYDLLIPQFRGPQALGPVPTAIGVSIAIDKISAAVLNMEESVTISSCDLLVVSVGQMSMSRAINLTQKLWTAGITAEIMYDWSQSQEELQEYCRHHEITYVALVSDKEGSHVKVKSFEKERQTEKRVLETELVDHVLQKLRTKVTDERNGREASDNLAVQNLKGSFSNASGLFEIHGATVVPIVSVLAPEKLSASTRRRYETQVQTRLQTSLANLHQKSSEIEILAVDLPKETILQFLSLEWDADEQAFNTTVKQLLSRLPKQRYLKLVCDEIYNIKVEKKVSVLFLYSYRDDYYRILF
Sequence of LYN (P07948 whole entry): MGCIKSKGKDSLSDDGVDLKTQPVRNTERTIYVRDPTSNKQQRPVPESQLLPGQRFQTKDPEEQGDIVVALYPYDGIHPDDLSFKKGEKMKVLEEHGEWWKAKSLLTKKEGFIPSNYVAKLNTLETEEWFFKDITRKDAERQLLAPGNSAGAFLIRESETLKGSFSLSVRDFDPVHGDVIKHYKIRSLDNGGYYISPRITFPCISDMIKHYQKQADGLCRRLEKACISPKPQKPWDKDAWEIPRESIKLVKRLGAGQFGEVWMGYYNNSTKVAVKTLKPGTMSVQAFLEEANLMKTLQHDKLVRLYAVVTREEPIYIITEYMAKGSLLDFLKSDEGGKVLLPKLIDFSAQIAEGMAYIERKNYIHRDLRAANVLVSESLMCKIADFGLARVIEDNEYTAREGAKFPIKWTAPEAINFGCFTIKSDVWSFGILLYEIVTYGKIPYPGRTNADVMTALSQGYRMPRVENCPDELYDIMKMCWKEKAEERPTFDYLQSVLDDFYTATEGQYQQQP
Sequence of STLK6 (Q9C0K7 whole entry): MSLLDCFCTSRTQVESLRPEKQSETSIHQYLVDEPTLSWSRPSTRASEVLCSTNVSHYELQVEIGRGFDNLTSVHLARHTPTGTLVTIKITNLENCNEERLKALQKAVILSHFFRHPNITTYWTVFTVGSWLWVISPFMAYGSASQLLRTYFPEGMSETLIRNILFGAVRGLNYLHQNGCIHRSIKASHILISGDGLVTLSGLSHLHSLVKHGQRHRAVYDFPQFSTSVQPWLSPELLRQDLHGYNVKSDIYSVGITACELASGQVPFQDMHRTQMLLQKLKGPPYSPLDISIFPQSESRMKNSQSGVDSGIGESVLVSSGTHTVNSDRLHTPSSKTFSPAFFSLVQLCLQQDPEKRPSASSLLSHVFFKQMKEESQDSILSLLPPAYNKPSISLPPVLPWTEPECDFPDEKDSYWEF
Sequence of PEK (Q9NZJ5 30-1116): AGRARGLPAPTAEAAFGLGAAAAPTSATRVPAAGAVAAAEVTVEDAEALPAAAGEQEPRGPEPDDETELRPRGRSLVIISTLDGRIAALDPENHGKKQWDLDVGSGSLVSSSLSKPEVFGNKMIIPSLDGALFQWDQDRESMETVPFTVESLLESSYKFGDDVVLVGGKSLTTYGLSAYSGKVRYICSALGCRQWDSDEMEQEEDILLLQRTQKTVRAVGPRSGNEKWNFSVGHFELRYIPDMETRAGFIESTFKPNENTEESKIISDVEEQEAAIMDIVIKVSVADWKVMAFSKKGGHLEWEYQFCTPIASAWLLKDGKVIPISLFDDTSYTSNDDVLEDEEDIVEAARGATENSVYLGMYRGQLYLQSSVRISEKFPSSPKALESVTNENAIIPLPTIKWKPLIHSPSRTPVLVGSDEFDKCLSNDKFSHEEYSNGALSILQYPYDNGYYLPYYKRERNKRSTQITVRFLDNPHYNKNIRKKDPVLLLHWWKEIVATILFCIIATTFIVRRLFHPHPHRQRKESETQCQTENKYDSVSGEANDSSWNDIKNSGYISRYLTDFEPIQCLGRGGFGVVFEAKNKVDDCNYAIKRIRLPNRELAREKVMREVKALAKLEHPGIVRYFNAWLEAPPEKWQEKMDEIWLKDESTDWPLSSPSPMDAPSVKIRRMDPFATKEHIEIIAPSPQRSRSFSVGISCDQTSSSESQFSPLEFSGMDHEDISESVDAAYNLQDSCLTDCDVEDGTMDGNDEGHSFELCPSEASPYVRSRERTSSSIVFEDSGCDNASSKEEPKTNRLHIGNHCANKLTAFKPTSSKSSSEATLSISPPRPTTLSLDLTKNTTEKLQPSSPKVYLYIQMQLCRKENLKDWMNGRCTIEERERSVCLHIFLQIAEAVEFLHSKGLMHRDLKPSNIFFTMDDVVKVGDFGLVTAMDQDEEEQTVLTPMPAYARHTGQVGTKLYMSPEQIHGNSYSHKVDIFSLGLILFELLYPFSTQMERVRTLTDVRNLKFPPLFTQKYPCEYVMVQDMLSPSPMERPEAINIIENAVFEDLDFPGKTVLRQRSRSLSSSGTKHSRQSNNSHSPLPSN
Sequence of KHS1 (Q9Y4K4 whole entry): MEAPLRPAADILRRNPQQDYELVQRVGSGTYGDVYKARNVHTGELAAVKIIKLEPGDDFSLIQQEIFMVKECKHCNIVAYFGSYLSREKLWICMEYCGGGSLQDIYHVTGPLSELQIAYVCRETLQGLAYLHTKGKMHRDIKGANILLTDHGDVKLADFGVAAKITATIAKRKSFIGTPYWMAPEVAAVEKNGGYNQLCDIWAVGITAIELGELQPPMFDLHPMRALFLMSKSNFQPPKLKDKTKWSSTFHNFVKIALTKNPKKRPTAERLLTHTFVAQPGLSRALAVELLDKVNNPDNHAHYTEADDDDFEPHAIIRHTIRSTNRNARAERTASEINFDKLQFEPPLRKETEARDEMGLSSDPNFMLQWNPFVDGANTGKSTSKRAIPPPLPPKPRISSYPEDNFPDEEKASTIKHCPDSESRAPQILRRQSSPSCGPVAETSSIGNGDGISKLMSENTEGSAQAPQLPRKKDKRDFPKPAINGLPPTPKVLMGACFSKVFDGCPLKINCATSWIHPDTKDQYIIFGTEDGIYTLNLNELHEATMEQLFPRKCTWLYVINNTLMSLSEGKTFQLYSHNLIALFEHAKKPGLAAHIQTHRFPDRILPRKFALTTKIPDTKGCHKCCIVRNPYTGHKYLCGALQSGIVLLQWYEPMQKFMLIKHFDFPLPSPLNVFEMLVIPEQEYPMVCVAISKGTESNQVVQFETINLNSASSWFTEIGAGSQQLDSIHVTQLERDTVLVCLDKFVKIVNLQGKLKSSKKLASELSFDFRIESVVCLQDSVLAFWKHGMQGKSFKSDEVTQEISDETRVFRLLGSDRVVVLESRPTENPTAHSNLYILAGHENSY
Sequence of PCTAIRE2 (Q00537 whole entry, looked up): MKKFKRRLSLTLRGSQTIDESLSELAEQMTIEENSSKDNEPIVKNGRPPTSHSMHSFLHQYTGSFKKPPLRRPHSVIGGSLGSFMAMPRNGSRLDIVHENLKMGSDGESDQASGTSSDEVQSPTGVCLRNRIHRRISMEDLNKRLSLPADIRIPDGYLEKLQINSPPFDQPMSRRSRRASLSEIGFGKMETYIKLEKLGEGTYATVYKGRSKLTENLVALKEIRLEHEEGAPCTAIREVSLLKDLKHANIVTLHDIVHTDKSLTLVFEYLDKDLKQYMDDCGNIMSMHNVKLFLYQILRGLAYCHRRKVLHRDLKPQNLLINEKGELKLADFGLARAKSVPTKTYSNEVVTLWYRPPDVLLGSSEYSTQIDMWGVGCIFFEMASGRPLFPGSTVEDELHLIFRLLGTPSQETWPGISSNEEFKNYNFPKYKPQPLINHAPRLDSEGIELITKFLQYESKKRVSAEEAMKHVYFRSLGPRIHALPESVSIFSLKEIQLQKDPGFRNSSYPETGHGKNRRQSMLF

With `C=CC(=O)N1CCC(CNc2nccc(Nc3ncc(C(=O)Nc4c(C)cccc4C)s3)n2)C1` (racemic) [Example I-8] the “% change of MS signal compared to control sample” value (shortened to “% change of MS signal”) (MARK1, MARK2) was 14.6%, the “% change of MS signal” value (NEK3) was 3.2% and the “% change of MS signal” value (MAP2K1) was 1.0%. For the same molecule, the “% change of MS signal” value (KSR1, KSR2) was −8.8%, the “% change of MS signal” value (LYN) was >97% and >90% and the “% change of MS signal” value (RSK3 domain1) was −62.5%. For the same molecule, the “% change of MS signal” value (GSK3A) was −14.2%, the “% change of MS signal” value (TBK1) was −2.9% and the “% change of MS signal” value (MST1, MST2) was 8.7%. The “% change of MS signal” value (MAP3K4) was 12.8%, the “% change of MS signal” value (KHS1) was −8.4% and the “% change of MS signal” value (CaMK2d) was −22.3%. For the same molecule, the “% change of MS signal” value (AurA, AurB, AurC) was −2.9%, the “% change of MS signal” value (EphB2) was >90% and the “% change of MS signal” value (LATS2) was 10.6%. The “% change of MS signal” value (FRAP) was −5.2%, the “% change of MS signal” value (CLK3) was −14.9% and the “% change of MS signal” value (MARK2, MARK3) was 7.5%. The “% change of MS signal” value (STLK6) was −12.9%, the “% change of MS signal” value (FRK) was 95.3% and the “% change of MS signal” value (GCN2) was −20.3% and −13.6%. The “% change of MS signal” value (MST4, YSK1) was 19.3%, the “% change of MS signal” value (PITSLRE) was −16.1% and the “% change of MS signal” value (p38b) was 12.0%. For the same molecule, the “% change of MS signal” value (BLK) was >95%, the “% change of MS signal” value (PEK) was 3.3% and the “% change of MS signal” value (IRE1) was −1.5%. For the same molecule, the “% change of MS signal” value (PIK3CB) was −10.1%, the “% change of MS signal” value (MAP3K3) was 7.9% and the “% change of MS signal” value (FYN, SRC, YES) was 97.9%. For the same molecule, the “% change of MS signal” value (CK1g2) was −6.1%, the “% change of MS signal” value (RSK2 domain2) was −6.8% and the “% change of MS signal” value (NEK4) was 15.2%. For the same molecule, the “% change of MS signal” value (PCTAIRE1, PCTAIRE3) was 19.8%, the “% change of MS signal” value (PCTAIRE2, PCTAIRE3) was 28.8% and the “% change of MS signal” value (MAPKAPK3) was 0.5%. For the same molecule, the “% change of MS signal” value (PRP4) was −10.7%, the “% change of MS signal” value (PRPK) was 3.7% and the “% change of MS signal” value (PCTAIRE2) was 8.5%. For the same molecule, the “% change of MS signal” value (PCTAIRE1) was 32.9%.
